* marks the point of attachment. Biotin = O=C1N[C@H]2[C@H](CS[C@H]2CCCCC(=O)*)N1

Holding throughout (assay type): binding, human
The subject of experiment [1] is antibodies in antisera from HIV-1 infected persons. The experiment can be described thus: ELISA with HIV-1 antibody-positive sera (biotinylated peptides on streptavidin- or avidin-coated plates, unbiotinylated peptides coated directly). As to the method:
(§1) Where peptides were to be coated directly, stock solutions of the peptides were diluted in sodium carbonate buffer, pH 9.6 and used to coat polystyrene microtiter plates at a peptide concentration of 2 to 5 micrograms per milliliter for 1 hour at 37° C.
(§2) In cases where biotinylated peptides were to be evaluated, plates were first coated with streptavidin in sodium carbonate buffer, pH 9.6 at a concentration of 3 micrograms per milliliter for 1 hour at 37° C. The plates were then washed to remove excess, unbound protein. A working solution of the biotinylated peptide at 1 microgram per milliliter in sodium carbonate buffer was then added to the wells of the microtiter plate and incubated for 1 hours at 37° C.
(§3) Once the plates had been coated with antigen, any remaining free binding sites on the plastic were blocked with casein. After washing, a dilution of the appropriate antisera, usually 1:100, was added to the wells of the plates and incubated for 1 hour at 37° C.
(§4) After washing to remove unbound material, specific antibody binding was detected by incubating the plates with goat anti-human immunoglobulin antibodies conjugated to the enzyme horseradish peroxidase. Following removal of unbound conjugate by washing, a solution containing H2O2 and 3,3′,5,5′-tetramethylbenzidine was added.
(§5) Reactions were stopped after a suitable interval by addition of sulfuric acid. […] Absorbance measurements were made at a wavelength of 450 nanometers and all data are expressed as an optical density value at this wavelength.
Experiments were performed to evaluate antibody recognition of short, 10 amino acid-long, N-acetylated peptides corresponding to other contained within the transmembrane proteins of HIV-1 and HIV-2. […] The peptides used for the comparison were as follows:
Antibody binding to these peptides was compared to antibody binding to the unibiotinylated peptides which were coated directly onto microtiter plates.
In order to evaluate antibody recognition of these two peptides, the peptides were bound individually to streptavidin-coated microtiter plates and tested using a panel of antisera from HIV-1 seropositive donors.
(§6) To determine how well biotinylated peptides would function in a mixture when bound to streptavidin- or avidin-coated plates, two mixtures were made of the N-terminally biotinylated versions of the HIV-1 peptides TM-HIV-1 (hereabove referred to as 1a.1) and V3-nm (hereabove referred to as 1b.4), the HIV-2 peptide TM-HIV-2 (hereabove referred to as 2a), and the hepatitis C virus peptides II, IX, and XVIII. Mixture A contained each of the six biotinylated peptides at a concentration of 1 microgram per milliliter (6 micrograms per milliliter peptide, total) while in mixture B, each peptide was present at a concentration of 0.1 microgram per milliliter (0.6 microgram per milliliter peptide, total). The individual peptides were coated at a concentration of 1 microgram per milliliter. For purposes of comparison, mixtures A and B were also coated directly onto the wells of a microtiter plate. Samples from HIV-1, HIV-2, and HCV-seropositive donors were tested and compared to sera from seronegative blood donors. A cut-off absorbance value of 0.250 was used to determine whether a reaction was positive or negative. Absorbance values equal or greater than 0.250 were considered positive while absorbance values below this value were considered negative.
A spacer consisting of two glycine residues was added to the amino terminus.
Background: An ELISA detects its analyte on a solid surface through an enzyme-linked reagent.

The subject of experiment [2] is antibodies in antisera from HIV-2 infected persons. In words: ELISA with HIV-2 antibody-positive sera (biotinylated peptides on streptavidin- or avidin-coated plates, unbiotinylated peptides coated directly). Conditions: for number borderline / number negative / number positive / percent borderline / percent negative / percent positive: Table 17, HIV-2 positive sera, 21 tested. As to the method:
as §1, §2, §3, §4, §5
The biotinylated peptides were loaded onto microtiter plates which had been coated with streptavidin. Antibody binding to these peptides was compared to antibody binding to the unibiotinylated peptides which were coated directly onto microtiter plates. It is evident that the biotinylated peptides from the HIV-1 or HIV-2 transmembrane proteins bound to streptavidin are recognized very well by antisera from HIV-1 or HIV-2 infected persons respectively. This is in contrast to the unbiotinylated versions of these peptides coated directly onto the polystyrene plates.
as §6
Two glycine residues were added at the N-terminus of each peptide to serve as a spacer and a biotin was coupled to the α-amino group of the resulting N-terminal glycine. The peptides were bound to streptavidin and coated in the wells of microwell plates. HIV-2 antibody-positive sera were used to evaluate these two peptides in an ELISA.

Experiment [3] in a line: ELISA with seronegative / negative control sera (specificity). A digest of the protocol: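 Specificity readout is OD at 450 nm (HRP goat anti-human Ig, TMB/H2O2, sulfuric acid stop), with ≥0.250 counted positive. Seronegative donor sera (typically 1:100, 1 h, 37° C) were applied to casein-blocked wells coated with peptide directly or via streptavidin capture of biotinylated peptide.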

Experiment [4] deals with antibodies in sera from HCV-seropositive donors. In words: ELISA with HCV antibody-positive sera (biotinylated peptides on streptavidin- or avidin-coated plates, unbiotinylated peptides coated directly). Conditions: Table 8, Avidin. A digest of the protocol:
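Read-out is OD at 450 nm after HRP goat anti-human Ig and TMB development, following 1 h at 37° C. with seropositive or negative sera diluted 1:100 (or 20-fold). Antigen was either unbiotinylated peptide adsorbed on plastic (pH 9.6 carbonate, 2–5 or 3 μg/ml) or biotinylated peptide at 1 μg/ml captured on streptavidin-coated wells, with casein blocking.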

Where [5] appears, read: Table 1, serum 0724, HIV-1 positive.
Setting [6] is: Table 1, serum PL, HIV-1 positive.
[7] abbreviates: Table 1, serum VE, HIV-1 positive.
[8] abbreviates: Table 1, serum YEMO, HIV-1 positive.
The mark [9] stands for this setting: Table 1, serum mm, HIV-1 positive.
The mark [10] stands for this setting: Table 1, serum 53-3, HIV-2 positive.
Setting [11] is: Table 1, serum 1400, HIV-2 positive.
The mark [12] stands for this setting: Table 1, serum AG, HIV-2 positive.
Setting [13] is: Table 1, serum 180, seronegative donor.
The mark [14] stands for this setting: Table 1, serum 194, seronegative donor.
Setting [15] is: Table 1, serum 195, seronegative donor.
The mark [16] stands for this setting: Table 1, serum 204, seronegative donor.

For the substance “Ac-Ile-Trp-Gly-Cys-Ser-Gly-Lys-Leu-Ile-Cys-NH2 (Ac-IWGCSGKLIC-NH2; cysteine pairing not given here) [TM-HIV-1, unbiotinylated N-acetylated decamer of the HIV-1 transmembrane protein]”, the “optical density (450 nm)” value in experiment [1] (setting [5]) is recorded as 0.174; in experiment [1] (setting [6]) it was 0.000; in experiment [1] (setting [7]), 0.052; in experiment [1] (setting [8]), 0.162; in experiment [1] (setting [9]) it was 0.051; in experiment [2] (setting [10]) it was 0.000. Besides, the “optical density (450 nm)” value in experiment [2] (setting [11]), in experiment [2] (setting [12]), in experiment [3] (setting [13]), in experiment [3] (setting [14]), in experiment [3] (setting [15]) and in experiment [3] (setting [16]) was 0.000 throughout.

As for “Ac-Ser-Trp-Gly-Cys-Ala-Phe-Arg-Gln-Val-Cys-NH2 (Ac-SWGCAFRQVC-NH2; cysteine pairing not given here) [TM-HIV-2, unbiotinylated N-acetylated decamer of the HIV-2 transmembrane protein]”, the “optical density (450 nm)” value in experiment [1] (setting [5]), in experiment [1] (setting [6]), in experiment [1] (setting [7]), in experiment [1] (setting [8]), in experiment [1] (setting [9]) and in experiment [2] (setting [10]) was 0.000 throughout. The “optical density (450 nm)” value in experiment [2] (setting [11]), in experiment [2] (setting [12]), in experiment [3] (setting [13]), in experiment [3] (setting [14]), in experiment [3] (setting [15]) and in experiment [3] (setting [16]) was 0.000 in each case.

On to “Asn Lys Thr Val Leu Pro Val Thr Ile Met Ser Gly Leu Val Phe His Ser Gln Pro Ile Asn Asp (NKTVLPVTIMSGLVFHSQPIND; printed: Asn Lys Thr Val Leu Pro Val Thr Ile Met Ser Gly Leu Val Phe His Ser Gln Pro Ile Asn Asp) [Peptide V2-239, HIV-2/SIV mm 239 V3; two glycine residues at the N-terminus and biotin]”, for which, in experiment [2], the number borderline is recorded as 2, the number negative is reported as 0, the number positive was determined as 19 and the percent borderline came out at 9.5%. Besides, in experiment [2], the percent negative is 0% and the percent positive was 90.5%.

In experiment [2], “Asn Lys Thr Val Val Pro Ile Thr Leu Met Ser Gly Leu Val Phe His Ser Gln Pro Ile Asn Lys (NKTVVPITLMSGLVFHSQPINK; printed: Asn Lys Thr Val Val Pro Ile Thr Leu Met Ser Gly Leu Val Phe His Ser Gln Pro Ile Asn Lys) [Peptide V3-GB12, HIV-2 V3; two glycine residues at the N-terminus and biotin]” registered a number borderline of 0, a number negative of 0, a number positive of 21 and a percent borderline of 0%. In experiment [2], this substance yielded a percent negative of 0% and a percent positive of 100%.

Turning to “Bio-Gly-Gly-Gly-Ser-Trp-Gly-Cys-Ala-Phe-Arg-Gln-Val-Cys-NH2 (Biotin-GGGSWGCAFRQVC-NH2; cysteine pairing not given here) [TM-HIV-2 Bio]”, the “optical density (450 nm)” value in experiment [4] (serum 8243 (HCV)) is on record as 0.109; in experiment [4] (serum 8247 (HCV)) it was 0.048; in experiment [4] (serum 8248 (HCV)) it was 0.046; in experiment [4] (serum 8269 (HCV)), 0.049; in experiment [4] (serum 8273 (HCV)), 0.050; in experiment [4] (serum 8278 (HCV)), 0.045. Also, the “optical density (450 nm)” value in experiment [4] (serum 8285 (HCV)) was 0.163; in experiment [4] (serum 8290 (HCV)), 0.047; in experiment [4] (serum 8291 (HCV)) it was 0.050; in experiment [1] (setting [5]) it was 0.000; in experiment [1] (setting [6]) it was 0.000; in experiment [1] (setting [7]), 0.000. The “optical density (450 nm)” value in experiment [1] (setting [8]) was 0.000; in experiment [1] (setting [9]), 0.000; in experiment [1] (Table 8, serum 3990 (HIV-1), Avidin), 0.054; in experiment [1] (Table 8, serum DV (HIV-1), Avidin), 0.048; in experiment [1] (Table 8, serum PL (HIV-1), Avidin) it was 0.051; in experiment [1] (Table 8, serum YS (HIV-1), Avidin), 0.046. Further, the “optical density (450 nm)” value in experiment [2] (setting [10]) amounted to 2.365; in experiment [2] (setting [11]), 1.982; in experiment [2] (setting [12]), 2.323; in experiment [2] (Table 8, serum 1400 (HIV-2), Avidin), 1.781; in experiment [2] (Table 8, serum AG (HIV-2), Avidin), 2.065; in experiment [3] (setting [13]), 0.000. Besides, the “optical density (450 nm)” value was 0.000 in experiment [3] (setting [14]); 0.000 in experiment [3] (setting [15]); 0.000 in experiment [3] (setting [16]); 0.057 in experiment [3] (Table 8, serum 1782 (blood donor), Avidin); 0.046 in experiment [3] (Table 8, serum 1784 (blood donor), Avidin); 0.047 in experiment [3] (Table 8, serum 1785 (blood donor), Avidin). For the same substance, in experiment [3] (Table 8, serum 1794 (blood donor), Avidin), the “optical density (450 nm)” value came to 0.090.

(Values after patent US6667387B1, “HCV core peptides” (priority 1992, dated 2003).)
